Data published in patent publication US20190216830A1, “OPHTHALMIC COMPOSITIONS” (Aciont Inc., priority 2017, published 2019).
Values joined by “and” are separate entries in the source; they are usually repeats but may differ in a detail not shown here. Equal entries are not always repeated.

Tests used:
[1] = Toxicokinetic study: plasma DSP and DEX by LC-MS after single device application; type: in vivo, New Zealand White rabbits; details: after DSP application via device; all four regimens
[2] = test system: rabbit coronary microvessel endothelium; details: cited from earlier work
[3] = test system: treated eyes (right eye); details: rabbit, in vivo

Row | Ocular findings in treated eyes (conjunctival injection, discharge, corneal haze) [3] | Compound | Tmax of DEX in plasma [1] | Concentration that can inhibit prostaglandin release [2]
1 | – | C[C@@H]1C[C@H]2[C@@H]3CCC4=CC(=O)C=C[C@]4(C)[C@@]3(F)[C@@H](O)C[C@]2(C)[C@@]1(O)C(=O)CO [DEX, dexamethasone] | 30 min | 10^−7 M and ~40 ng/mL
2 | transient and mild in nature | C[C@@H]1C[C@H]2[C@@H]3CCC4=CC(=O)C=C[C@]4(C)[C@@]3(F)[C@@H](O)C[C@]2(C)[C@@]1(O)C(=O)COP(=O)(O)O [DSP, Dexamethasone sodium phosphate] | – | –
